Results: patent US20230014181A1, “CULTURE SYSTEM AND METHODS FOR IMPROVED MODELING OF NEUROLOGICAL CONDITIONS” (Genentech, Inc., priority 2021, published 2023)
Counter-ions that a name gives are not always drawn. Like-named read-outs stand apart in the source and are kept apart here.

Columns and labels:
[1] = tested on: human iPSC neurons and astrocytes treated with 5 μM sAβ42s; assay: Focused small molecule screen, double culture (neuron, astrocyte), rescue from sAβ42s toxicity, high content imaging; format: cell-based; conditions: double culture, 5 μM sAβ42s; for percent rescue from sAβ42s toxicity at 25 µM / percent rescue from sAβ42s toxicity at 50 µM: Homo sapiens, iPSC
Experimental: (§1) FIGS. 11A-11D show synapse % rescue versus MAP2% rescue (FIGS. 11A-11B) and beta III tubulin % rescue versus MAP2% rescue (FIGS. 11C-11D), in neurons and astrocytes (FIGS. 11A and 11C) or neurons, astrocytes, and microglia (FIGS. 11B and 11D) treated with 5 μM sAβ42s and small molecules from a focused screen of known neuroprotective agents at multiple concentrations (50 μM, 25 μM, 12.5 μM and 6.25 μM (double culture), 50 μM, 12.5 μM, 3.1 μM and 0.78 μM (triple culture). Small molecules that prevented toxicity in dendrites (MAP2), synapses (Synapsin 1/2), cell count (CUX2), or axons ([…]) at or above 30% were considered hits (red dotted line).
Neurons from both NSC lines were evaluated by immunofluorescence staining. Briefly, cells were fixed with 4% PFA and 4% sucrose at room temperature for 20 minutes using Bravo automation. Fixed cells were then washed 2 times with PBS using Biotek 406 microplate washer (Beckman Coulter), followed by permeabilization and blocking by incubation with a solution containing 1×PBS, 0.1% Triton X-100, 2% donkey serum, and 1% BSA at room temperature for 30 minutes. Blocking solution was removed and cells were incubated with primary antibodies in blocking solution overnight at 4° C. After washing 6 times with PBS on Biotek 406 cell plate washer (Beckman Coulter), cells were then incubated with fluorophore-conjugated secondary antibodies for 1 hour at room temperature in the dark to avoid photobleaching. Cells were then washed 6 more times in with PBS before imaging. Fluorescent images were captured using IN Cell 6000 confocal microscope (GE Healthcare Life Sciences). The image analysis was performed with IN Cell 6000 analysis software.
Prior to experimentation, media volume in wells containing neurons was equalized with liquid handling automation (Bravo) in order to ensure precise control of concentrations. All Aβ42 oligomers, anti-Aβ, small molecules, inflammatory cytokines were prepared at 10× concentration and added to Neuronal Culture Media at an appropriate volume. For the repeated dosing experiments, the media were refreshed 50% at each dosing first, before adding Aβ42 oligomers, and/or anti-Aβ antibody at the specified final concentration.
(§2) In double (neuron, astrocyte) and triple (neuron, astrocyte, microglia) cultures, each small molecule listed in Table 1 was tested in the AD model paradigm at up to four concentrations. Molecules that characterized ≥30% rescue in any of the four measurements of dendrites area (MAP2), synapses count (synapsin 1/2), or cell count (CUX2), or axon area (Beta III Tubulin; “BT3”)) were classified as hits (FIGS. 11A-11D, Table 2, and Table 3).

[2] = tested on: human iPSC neurons, astrocytes and microglia treated with 5 μM sAβ42s; assay: Focused small molecule screen, triple culture (neuron, astrocyte, microglia), rescue from sAβ42s toxicity; format: cell-based
Experimental: as §1
Frozen cells were thawed and immediately seeded at a density of 8,000 cells/well of a 384-well plate onto 8-week old neuron-astrocyte co-culture in Microglia media (BrainPhys™ neuronal media (Stem Cell Technologies) supplemented with 1× B27 with vitamin A, 1×N2 Plus Media Supplement (R&D Systems), 20 ng/mL BDNF, 20 ng/mL GDNF, 1 mM creatine, 200 nM L-ascorbic acid, 1 μg/mL mouse laminin, 0.5 mM GlutaMAX™ (Thermofisher), 0.5× penicillin-streptomycin, 1× normocin, 5 ng/mL TGF-β, 100 ng/mL human IL-34, 1.5 μg/mL cholesterol, 1 ng/mL gondoic acid, 100 ng/mL oleic acid, 460 μM thioglycerol, 1× insulin-transferrin-selenium, 25 ng/mL rhM-CSF, 5.4 μg/mL human insulin solution).
as §2

[3] = 50 μM compound, read-out: % B3T rescue
[4] = 50 μM compound, read-out: % Cux2 rescue
[5] = 50 μM compound, read-out: % MAP2 rescue
[6] = 50 μM compound, read-out: % Synapse rescue

SMILES | % B3T rescue ([1]; 25 μM compound) [%] | % Cux2 rescue ([1]; 25 μM compound) [%] | % MAP2 rescue ([1]; 25 μM compound) [%] | % Synapse rescue ([1]; 25 μM compound) [%] | % B3T rescue ([1]; 50 μM compound) [%] | % Cux2 rescue ([1]; 50 μM compound) [%] | % MAP2 rescue ([1]; 50 μM compound) [%] | % Synapse rescue ([1]; 50 μM compound) [%] | percent rescue from sAβ42s toxicity at 50 µM [1, 3] [%] | percent rescue from sAβ42s toxicity at 50 µM [1, 4] [%] | percent rescue from sAβ42s toxicity at 50 µM [1, 5] [%] | percent rescue from sAβ42s toxicity at 50 µM [1, 6] [%] | further results
CCN(CC)CCNC(=O)c1c(C)[nH]c(/C=C2\C(=O)Nc3ccc(F)cc32)c1C [SU 11248] | −19 | 59 | 16 | 4 | 4 | 115 | 7 | 21 | – | – | – | – | % B3T rescue ([2]; 0.78 μM compound): 69%; % MAP2 rescue ([2]; 0.78 μM compound): 73%; % Synapse rescue ([2]; 0.78 μM compound): 68%; % B3T rescue ([2]; 3.13 μM compound): 74%; % MAP2 rescue ([2]; 3.13 μM compound): 88%; % Synapse rescue ([2]; 3.13 μM compound): 77%
CN(C)[C@@H]1C(O)=C(C(N)=O)C(=O)[C@@]2(O)C(O)=C3C(=O)c4c(O)ccc(Cl)c4[C@@H](O)[C@H]3C[C@@H]12 [Demeclocydine hydrochloride, Demeclocycline hydrochloride] | – | – | – | – | – | – | – | – | 63 | 33 | 39 | 27 | percent rescue from sAβ42s toxicity at 25 µM ([1]; 25 μM compound, read-out: % B3T rescue): 35%; percent rescue from sAβ42s toxicity at 25 µM ([1]; 25 μM compound, read-out: % Cux2 rescue): 6%; percent rescue from sAβ42s toxicity at 25 µM ([1]; 25 μM compound, read-out: % MAP2 rescue): 23%; percent rescue from sAβ42s toxicity at 25 µM ([1]; 25 μM compound, read-out: % Synapse rescue): 15%
CN1C(=O)C(Cc2c[nH]c3ccccc23)NC1=S (stereo not shown) [Necrostatin-1] | – | – | – | – | 11 | 10 | 37 | 15 | – | – | – | – | –
O=c1cc(-c2ccccc2)oc2c(O)c(O)ccc12 [7,8-Dihydroxyflavone] | – | – | – | – | – | – | – | – | -14 | 42 | 6 | -2 | –
O=C1Nc2ccc(I)cc2/C1=C/c1cc(Br)c(O)c(Br)c1 [GW 5074] | 14 | 115 | 19 | 8 | 48 | 162 | 54 | 8 | – | – | – | – | % B3T rescue ([1]; 6.25 μM compound): 16%; % Cux2 rescue ([1]; 6.25 μM compound): 95%; % MAP2 rescue ([1]; 6.25 μM compound): 17%; % Synapse rescue ([1]; 6.25 μM compound): 8%; % B3T rescue ([1]; 12.5 μM compound): 9%; % Cux2 rescue ([1]; 12.5 μM compound): 76%; % MAP2 rescue ([1]; 12.5 μM compound): 12%; % Synapse rescue ([1]; 12.5 μM compound): 6%
